Measured values: paper PMC12494099, “Discovery and Characterization of Novel IKZF1/3 Glue Degraders against Multiple Hematological Cancer Cell Lines” (Oncology Research, 2025)
pIC50: −log10 of the molar value.

What was measured:
Format in all cases: cell-based
IKZF1-HiBiT = target: T1, IKZF1-HiBiT (Homo sapiens, UniProt Q13422+Q96SW2); experiment: Quantitative degradation assay using the HiBiT system (HEK293T); conditions: for reduction in IKZF1: 1 μM, time course; for DC50 / Dmax: HEK293T IKZF1-HiBiT, 24 h; for Dmax: HEK-293T, read-out: maximal degradation (Dmax) on IKZF1
T1 construct: expressed in transfected cells; host or cells: HEK293T
Description: An in vitro quantitative degradation assay utilizing the HiBiT system was carried out as previously described. To evaluate the degradation of IKZF1, IKZF2, and IKZF3 proteins, HEK293T cell lines stably expressing IKZF1-, IKZF2-, IKZF3-, GSPT1- or CK1α-HiBiT were cultured in 96-well plates at 12,000 cells per well. […] After the treatment, cell lysis was carried out using the Nano-Glo HiBiT Lytic Detection System (#N3040, Promega). All lysis operations were strictly carried out according to the manufacturer’s specific protocol. Then, the SpectraMax iD3 instrument (Molecular Devices, San Jose, CA, USA) was used to detect the luminescent signals released by the HiBiT-tagged neosubstrates.

IKZF2 = IKZF2 (Homo sapiens, UniProt Q9UKS7); experiment: Immunoblot analysis of endogenous protein; parameters: endogenous in cells; host or cells: NCI-H929 and MV-4-11; conditions: NCI-H929 and MV-4-11 cells
Description: Cells (NCI-H929 and MV-4-11) were plated into 6-well plates. They were then treated with different concentrations (0, 0.01, 0.1, 1, 10 μM) of the compounds (MGD-A7, MGD-C9) or the designated time periods. Afterward, the cells were washed with phosphate-buffered saline (PBS, pH = 7.2–7.4, 1×). Next, they were lysed using RIPA buffer (#R0278-500ML, Sigma-Aldrich, MO, USA), and the cell lysates were precisely measured. Following this, the total protein lysates underwent 10% sodium dodecyl sulfate-polyacrylamide gel electrophoresis (SDS-PAGE). This method efficiently separated the proteins based on their molecular weights. Subsequently, the separated proteins were transferred onto a nitrocellulose membrane (#HATF00010, […], Madison, WI, USA). The membranes were then successively incubated with the indicated primary antibodies. […] The chemiluminescent signal was detected, and membrane images were captured with an Imaging system (Bio-Rad, Hercules, CA, USA). ImageJ analysis software (V1.8.0.112, National Institutes of Health, NIH, Bethesda, MD, USA) was employed to analyze the intensity of protein bands, aiming to quantify the relative expression levels of the target proteins. The half-maximal degradation concentration (DC50) value, which indicates the concentrations of test compounds showing 50% protein degradation efficacy, was calculated using GraphPad Prism 8.0.

[1] = system: control vector MV-4-11 cells; experiment: Cell viability, control vector cells; conditions: Homo sapiens, MV4-11, 96 h
Description: (§1) Multiple cell lines (NCI-H929, OPM-2, U937, Ocl-Ly3, RPMI-8226, MOLM-13, Skm-1, MUTZ-1, SU-DHL-4, TMD8, U2932, WSU-DLCL-2, MV-4-11 and KG-1 cells) were plated into 96-well plates. The plated at a density of 15,000 cells per well, and each well contained 100 µL of medium. Subsequently, different compounds (MGD-AX, MGD-BX, MGD-CX) were added to each well. These compounds’ concentrations were set at 0, 0.01, 0.033, 0.1, 0.33, 1, 3.3, 10 and 33 μM, and the cells were incubated with the compounds for 96 h. To evaluate the antiproliferative effects of these compounds, the Cell Counting Kit-8 (CCK-8, #CX007, Epizyme, Shanghai, China) was used. All procedures were carried out in strict accordance with the manufacturer’s instructions (Dojindo Laboratories, Mamoto Ken, Japan). The half maximal inhibitory concentrations (IC50) values, which represent the concentrations of the test compounds that can inhibit 50% of cell activity, were calculated using GraphPad Prism 8.0 (GraphPad Software Inc., San Diego, CA, USA).
(§2) […] NCI-H929 and MV-4-11 cells were seeded at a density of 1 × 10^6 cells/well in 6-well tissue culture-treated plates. According to the manufacturer’s protocol (Santa Cruz Biotechnology, Inc, Dallas, TX, USA), CRBN CRISPR/Cas9 knockout Plasmid (#sc-412142), CRBN HDR plasmid (#sc-412142-HDR), UltraCruz® Transfection Reagent (#sc-395739) were pre-mixed in Plasmid Transfection Medium (#sc-108062) at a 1:1:2 mass ratio, and cells were transiently transfected in a 37°C, 5% CO2 incubator. After 72 h of infection, the medium was replaced with complete medium containing 3 μg/mL puromycin for 5–7 days. On day 7, GFP-positive cells were sorted as single cells into 96-well plates. Isolated single-cell clones were screened via western blot analysis, using wild-type NCI-H929 or MV-4-11 cells as positive controls.

[2] = system: control vector NCI-H929 cells; experiment: Cell viability, control vector cells; conditions: Homo sapiens, NCI-H929, 96 h
Description: as §1, §2

IKZF2-HiBiT = target: T2, IKZF2-HiBiT (Homo sapiens, UniProt Q9UKS7); experiment: Quantitative degradation assay using the HiBiT system (HEK293T); conditions: dose response 24 h and time course 1 µM
T2 construct: expressed in transfected cells; host or cells: HEK293T
Description: (§3) An in vitro quantitative degradation assay utilizing the HiBiT system was carried out as previously described. To evaluate the degradation of IKZF1, IKZF2, and IKZF3 proteins, HEK293T cell lines stably expressing IKZF1-, IKZF2-, IKZF3-, GSPT1- or CK1α-HiBiT were cultured in 96-well plates at 12,000 cells per well. The cells were treated with different concentrations of the test compounds (MGD-A7 and MGD-C9) with concentrations of 0, 0.01, 0.033, 0.1, 0.33, 1, 3.3, 10 and 33 μM for the specified time intervals. After the treatment, cell lysis was carried out using the Nano-Glo HiBiT Lytic Detection System (#N3040, Promega). All lysis operations were strictly carried out according to the manufacturer’s specific protocol. Then, the SpectraMax iD3 instrument (Molecular Devices, San Jose, CA, USA) was used to detect the luminescent signals released by the HiBiT-tagged neosubstrates.

GSPT1-HiBiT = target: T3, GSPT1-HiBiT (Homo sapiens, UniProt P15170); experiment: as above; conditions: increased dosing to 10 μM, 24 h
T3 construct: expressed in transfected cells; host or cells: HEK293T
Description: as §3

CK1α-HiBiT = target: T4, CK1α-HiBiT (Homo sapiens, UniProt P48729); experiment: as above; conditions: increased dosing to 10 μM, 24 h
T4 construct: expressed in transfected cells; host or cells: HEK293T
Description: as §3

T1 sequence (Q13422 whole entry): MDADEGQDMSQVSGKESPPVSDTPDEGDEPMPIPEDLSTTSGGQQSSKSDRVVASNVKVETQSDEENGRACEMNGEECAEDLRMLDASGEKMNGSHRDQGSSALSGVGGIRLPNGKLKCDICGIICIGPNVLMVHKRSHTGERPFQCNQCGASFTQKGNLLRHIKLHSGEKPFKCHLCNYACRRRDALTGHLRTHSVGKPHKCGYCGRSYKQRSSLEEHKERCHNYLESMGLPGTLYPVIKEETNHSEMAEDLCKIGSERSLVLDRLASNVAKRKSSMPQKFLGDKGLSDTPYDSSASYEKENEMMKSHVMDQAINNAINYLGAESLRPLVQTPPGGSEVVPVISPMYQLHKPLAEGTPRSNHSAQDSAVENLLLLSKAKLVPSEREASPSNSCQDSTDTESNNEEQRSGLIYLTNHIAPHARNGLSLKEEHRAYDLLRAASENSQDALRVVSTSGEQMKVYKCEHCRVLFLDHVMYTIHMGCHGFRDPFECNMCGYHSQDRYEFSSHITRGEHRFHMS
T1 sequence (Q96SW2 whole entry): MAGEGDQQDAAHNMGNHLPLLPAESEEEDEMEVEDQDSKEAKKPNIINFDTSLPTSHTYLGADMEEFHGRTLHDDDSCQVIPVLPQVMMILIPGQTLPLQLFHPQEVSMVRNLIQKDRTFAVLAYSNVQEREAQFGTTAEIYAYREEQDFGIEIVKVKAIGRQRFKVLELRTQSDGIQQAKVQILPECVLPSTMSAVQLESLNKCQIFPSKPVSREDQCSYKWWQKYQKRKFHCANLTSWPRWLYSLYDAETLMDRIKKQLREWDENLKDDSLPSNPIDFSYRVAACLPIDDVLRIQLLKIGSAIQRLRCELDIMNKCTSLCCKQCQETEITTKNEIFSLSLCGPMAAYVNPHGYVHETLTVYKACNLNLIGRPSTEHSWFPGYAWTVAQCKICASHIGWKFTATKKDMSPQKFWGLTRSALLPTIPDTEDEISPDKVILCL
T1 sequence (Q16531 whole entry partner): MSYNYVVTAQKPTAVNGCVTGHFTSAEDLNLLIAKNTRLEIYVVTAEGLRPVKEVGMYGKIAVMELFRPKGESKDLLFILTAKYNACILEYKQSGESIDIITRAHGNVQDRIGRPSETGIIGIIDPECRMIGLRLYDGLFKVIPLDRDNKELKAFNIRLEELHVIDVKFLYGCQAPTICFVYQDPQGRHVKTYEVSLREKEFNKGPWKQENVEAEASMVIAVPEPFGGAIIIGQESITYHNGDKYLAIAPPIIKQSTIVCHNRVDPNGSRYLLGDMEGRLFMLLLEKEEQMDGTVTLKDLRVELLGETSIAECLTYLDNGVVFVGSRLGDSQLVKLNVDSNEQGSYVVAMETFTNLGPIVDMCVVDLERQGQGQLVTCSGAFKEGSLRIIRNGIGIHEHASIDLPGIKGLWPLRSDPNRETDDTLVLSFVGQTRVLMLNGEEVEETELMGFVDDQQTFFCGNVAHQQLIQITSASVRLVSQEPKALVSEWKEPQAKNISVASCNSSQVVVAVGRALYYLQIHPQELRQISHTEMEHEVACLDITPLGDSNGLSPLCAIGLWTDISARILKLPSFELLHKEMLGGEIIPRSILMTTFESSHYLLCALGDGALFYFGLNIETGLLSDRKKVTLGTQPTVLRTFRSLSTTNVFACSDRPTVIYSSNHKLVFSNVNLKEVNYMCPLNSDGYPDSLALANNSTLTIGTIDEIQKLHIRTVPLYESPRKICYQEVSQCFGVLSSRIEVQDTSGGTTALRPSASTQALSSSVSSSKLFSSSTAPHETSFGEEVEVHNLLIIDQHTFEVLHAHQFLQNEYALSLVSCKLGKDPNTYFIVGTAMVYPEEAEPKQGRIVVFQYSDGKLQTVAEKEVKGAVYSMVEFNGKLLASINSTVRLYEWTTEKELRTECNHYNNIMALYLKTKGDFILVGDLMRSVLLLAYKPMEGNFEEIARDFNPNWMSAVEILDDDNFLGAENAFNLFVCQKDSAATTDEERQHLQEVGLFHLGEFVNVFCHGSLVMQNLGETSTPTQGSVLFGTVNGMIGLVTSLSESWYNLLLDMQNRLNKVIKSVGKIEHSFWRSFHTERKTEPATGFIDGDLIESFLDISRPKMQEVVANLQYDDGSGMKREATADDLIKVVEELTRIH
IKZF2, sequence (Q96SW2 whole entry partner): as the sequence (Q96SW2 whole entry) above
IKZF2, sequence (Q16531 whole entry partner): as the sequence (Q16531 whole entry partner) above
IKZF2, sequence (Q9UKS7 whole entry): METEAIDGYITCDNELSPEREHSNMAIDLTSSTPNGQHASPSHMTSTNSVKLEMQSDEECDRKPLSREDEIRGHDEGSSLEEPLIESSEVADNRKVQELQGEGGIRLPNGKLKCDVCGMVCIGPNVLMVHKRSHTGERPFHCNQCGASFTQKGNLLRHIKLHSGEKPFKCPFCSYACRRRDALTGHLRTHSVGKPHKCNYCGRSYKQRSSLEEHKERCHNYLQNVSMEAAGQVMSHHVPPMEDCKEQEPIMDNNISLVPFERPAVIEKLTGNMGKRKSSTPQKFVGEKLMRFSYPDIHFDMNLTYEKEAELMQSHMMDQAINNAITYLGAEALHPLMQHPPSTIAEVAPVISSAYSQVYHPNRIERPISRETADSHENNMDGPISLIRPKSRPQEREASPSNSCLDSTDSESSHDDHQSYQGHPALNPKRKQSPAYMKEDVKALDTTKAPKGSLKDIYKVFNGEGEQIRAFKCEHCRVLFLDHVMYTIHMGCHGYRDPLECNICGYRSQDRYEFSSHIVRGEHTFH
T2 sequence (Q96SW2 whole entry partner): as the sequence (Q96SW2 whole entry) above
T2 sequence (Q16531 whole entry partner): as the sequence (Q16531 whole entry partner) above
T2 sequence (Q9UKS7 whole entry): as the sequence (Q9UKS7 whole entry) above
T4 sequence (Q96SW2 whole entry partner): as the sequence (Q96SW2 whole entry) above
T4 sequence (Q16531 whole entry partner): as the sequence (Q16531 whole entry partner) above
T4 sequence (P48729 whole entry): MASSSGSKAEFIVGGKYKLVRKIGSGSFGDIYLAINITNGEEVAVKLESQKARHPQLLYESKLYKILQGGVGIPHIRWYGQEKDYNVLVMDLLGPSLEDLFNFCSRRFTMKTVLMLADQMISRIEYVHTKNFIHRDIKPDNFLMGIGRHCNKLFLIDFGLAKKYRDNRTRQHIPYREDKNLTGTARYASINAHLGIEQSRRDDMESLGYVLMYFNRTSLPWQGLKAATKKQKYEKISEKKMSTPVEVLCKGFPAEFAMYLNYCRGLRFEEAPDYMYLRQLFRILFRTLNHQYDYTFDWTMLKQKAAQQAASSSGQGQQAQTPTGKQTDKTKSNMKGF
T3 sequence (Q96SW2 whole entry partner): as the sequence (Q96SW2 whole entry) above
T3 sequence (Q16531 whole entry partner): as the sequence (Q16531 whole entry partner) above
T3 sequence (P15170 whole entry): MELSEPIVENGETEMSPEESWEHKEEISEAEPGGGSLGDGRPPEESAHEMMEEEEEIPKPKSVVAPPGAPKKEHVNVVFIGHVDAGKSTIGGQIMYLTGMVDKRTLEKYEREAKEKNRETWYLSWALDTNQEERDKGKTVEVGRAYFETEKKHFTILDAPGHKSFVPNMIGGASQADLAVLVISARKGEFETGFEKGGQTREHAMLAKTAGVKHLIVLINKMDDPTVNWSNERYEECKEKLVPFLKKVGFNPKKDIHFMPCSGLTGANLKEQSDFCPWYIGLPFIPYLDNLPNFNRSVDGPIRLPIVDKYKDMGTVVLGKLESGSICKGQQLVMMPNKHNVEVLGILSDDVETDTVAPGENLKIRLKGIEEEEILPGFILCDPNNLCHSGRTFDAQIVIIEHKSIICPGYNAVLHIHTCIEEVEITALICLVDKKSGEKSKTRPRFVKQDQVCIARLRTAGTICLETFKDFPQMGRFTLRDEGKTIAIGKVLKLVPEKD

SMILES	reduction in IKZF1 (IKZF1-HiBiT; 12 h) [%]	DC50 (IKZF1-HiBiT) [nM]	Dmax (IKZF1-HiBiT) [%]	degradation on IKZF2 (IKZF2)	pIC50 [1]	pIC50 [2]	effect on luminescence signals from IKZF2-HiBit (IKZF2-HiBiT)	degradation effect on luminescence signals of GSPT1-HiBit (GSPT1-HiBiT)	degradation effect on luminescence signals of CK1α-HiBit (CK1α-HiBiT)	reduction in IKZF1 (IKZF1-HiBiT; 8 h) [%]
CN1CCN(Cc2cccc(C(=O)NC3CCC(=O)NC3=O)c2)CC1 (stereo not drawn) [MGD-A7, N-(2,6-dioxopiperidin-3-yl)-3-((4-methylpiperazin-1-yl)methyl)benzamide]	> 60	249	89.4	minimal degradation	6.17	6.20	minimal inhibition	minimal degradation effects	minimal degradation effects	
CN1CCN(Cc2cccc(C(=O)NC3CCC(=O)NC3=O)c2F)C(=O)C1 (stereo not drawn) [MGD-C9, N-(2,6-dioxopiperidin-3-yl)-2-fluoro-3-((4-methyl-2-oxopiperazin-1-yl)methyl)benzamide]		96	90.3	minimal degradation	6.70	6.50	minimal inhibition	minimal degradation effects	minimal degradation effects	> 60
